The source of these data is PMC9232501, “Results of the phase I CCTG IND.231 trial of CX-5461 in patients with advanced solid tumors enriched for DNA-repair deficiencies” (Nature Communications, 2022).

Molecules are shown by their SMILES. “And” between values parts separate entries of the source, which are not always exact repeats. Identical values can stand only once.

In data set [1] the test system is HCT116 cells. Kind of data set: ROS measurement with H2DCFDA before/after UVA 125 mJ/cm^2. It counts as cell-based, Human. The settings on record: CX-5461 0.1 μM or PDS 10 μM for 1 h. Here is the method:
ROS measurement with H2DCFDA: HCT116 cells were treated with vehicle, CX-5461 0.1 μM or PDS 10 μM for 1 h, then were added with H2DCFDA for 45 min before initial fluorescence measurement. Cells were then irradiated with UVA 125 mJ/cm^2, and immediately sent for a second fluorescent measurement. The ratio of the second and the first fluorescent measurement was calculated as the level of ROS induced by UVA. Assays were performed in the 1-hour time frame within which UV damage manifests, in contrast to G4 ligand-induced damage which takes 3–4 h to be measurable.
(§1) Supplementary Figures and Tables
(§2) Supplementary Figure 1. UVA radiation increased double-stranded DNA breaks and ROS.
(§3) Representative pictures of g -H2AX immunofluorescent staining with and without UVA radiation, for […]
condition, quantified in (b) Quantile and mean intensity of g-H2AX level per cell, vertical axis. UV and drug factor conditions, horizontal axis. Experiments were repeated two times (biological duplicates) and similar results were obtained. Number of cells as in Figure 5 g (c) The ratio of ROS level measured after UVA irradiation versus before UVA irradiation was calculated. Biological triplicates. The horizontal bar = median. ***P<0.0001, Welch’s t-test; n=8
(1 picture or pasted object on this page, not shown here)

For data set [2], the system named is HCT116 cells. In words: HCT116 cytotoxicity (WST-1 assay) with and without UVA radiation. Particulars: for potentiation of UVA-induced cytotoxicity: UV 5 mJ/cm^2 and 125 mJ/cm^2; for WST-1 raw signal (Figure 5c) / WST-1 raw signal (Figure 5e): replicates. The class given is cell-based, Human. As to the method: (§4) Fig. 5 Comparison of G4 ligand photosensitization. […] Vertical axis, fractional survival, horizontal axis log10 drug concentration (M) (f) Representative images of CPD immunofluorescent staining under UV and drug treatment conditions for U2OS cells, quantified from biological duplicates in (g) (h) Scale bar = 100um. U2OS cells were treated with drug or vehicle control, then immediately irradiated with UVA 125 mJ/cm^2; and fixed 1 h later for immunofluorescence staining with CPD antibody. g Distribution of mean intensity of CPD level per cell (total n = in labels), with two biological repeats per condition. Vertical axis, mean CPD intensity per cell, horizontal axis, conditions (h) WT or KO XPA HAP1 cells assayed for cytotoxicity. Vertical axis, fractional survival (WST-1 assay). The horizontal axis, log10 drug concentration (M). Error bars = standard deviation of the mean. Three biological repeats per condition.
(§5) Human epidermal keratinocytes (HEKa) cells were sourced from Thermo Fisher Scientific, and were grown in EpiLife™ Medium with HKGS. HAP WT and XPA knockout cell lines (Horizon Discovery) were cultured in IMDM, 10% FCS. Human HCT116 cells, U2OS cells (ATCC) were grown in McCoy’s 5 A medium with 10% FBS and L-glutamine. All cell lines are mycoplasma free and have been authenticated by STR or SNP profiling. CX-5461 was provided by Senhwa Biosciences, Inc. PDS is from Sigma-Aldrich, BRACO-19 from Alfa Chemistry, PhENDC3 is from Sigma-Aldrich, γ -H2AX antibody from Abcam (1:1000 for IF) and CPD antibody (1:1500) from Cosmo Bio Ltd. (Catalog number: CAC-NM-DAD-001). The WST-1 assay was performed as previously described, γ H2AX foci staining was performed as previously described. Immunofluorescence staining of CPD was performed according to the protocol from the manufacturer (Cosmo Bio Ltd).

In data set [3] the test system is BRCA2 and BRCA1-deficient tumor models. Particulars: cited from earlier work.
Data set [4] has as its system γ-H2AX (double-stranded DNA breaks). Kind of data set: γ-H2AX immunofluorescent staining with and without UVA radiation. The class given is cell-based. Particulars: CX5461 10^-8M, 5x10-8M; PDS 20 x 10^-6M. Here is the method: as §5, §1, §2, §3
condition, quantified in (b) Quantile and mean intensity of g-H2AX level per cell, vertical axis. UV and drug factor conditions, horizontal axis. […] Number of cells as in Figure 5 g (c) The ratio of ROS level measured after UVA irradiation versus before UVA irradiation was calculated. […]

The next data set relates to U2OS cells. In words: CPD (cyclobutane pyrimidine dimer) immunofluorescence after UVA 125 mJ/cm^2. The class given is cell-based, Human. The settings on record: 1 h compound exposure. Here is the method:
as §4
Human epidermal keratinocytes (HEKa) cells were sourced from Thermo Fisher Scientific, and were grown in EpiLife™ Medium with HKGS. HAP WT and XPA knockout cell lines (Horizon Discovery) were cultured in IMDM, 10% FCS. Human HCT116 cells, U2OS cells (ATCC) were grown in McCoy’s 5 A medium with 10% FBS and L-glutamine. All cell lines are mycoplasma free and have been authenticated by STR or SNP profiling. […]

For `NCCOc1cc(C(=O)Nc2cc(OCCN)c3ccccc3n2)nc(C(=O)Nc2cc(OCCN)c3ccccc3n2)c1` [PDS, pyridostatin], the “ROS in the presence of UVA (ratio after/before UVA)” value in the data set with HCT116 cells [1] was “not”. Besides, the “potentiation of UVA-induced cytotoxicity” value in the data set with HCT116 cells [2] is “not”. Further, the “WST-1 raw signal (Figure 5c)” value in the data set on HCT116 cells [2] (conc 1.56e-6, 5mJ/cm2 UV) is 3.2786 and 3.1337; with HCT116 cells [2] (conc 1.56e-6, 125 mJ/cm2 UV) it was 2.9405 and 3.1793; in the data set with HCT116 cells [2] (conc 1.56e-6, no UV) it was 3.373 and 3.3554; in the data set on HCT116 cells [2] (conc 3.13e-6, 5mJ/cm2 UV), 2.8932 and 3.2752; with HCT116 cells [2] (conc 3.13e-6, 125 mJ/cm2 UV), 3.2783 and 2.5154; in the data set with HCT116 cells [2] (conc 3.13e-6, no UV) it was 3.1639 and 3.0204. For the same compound, the “WST-1 raw signal (Figure 5c)” value with HCT116 cells [2] (conc 6.25e-6, 5mJ/cm2 UV) is 3.1968 and 2.1952; with HCT116 cells [2] (conc 6.25e-6, 125 mJ/cm2 UV), 2.1994 and 1.9427; in the data set with HCT116 cells [2] (conc 6.25e-6, no UV), 2.8791 and 2.2497; in the data set with HCT116 cells [2] (conc 1.25e-5, 5mJ/cm2 UV), 0.8793 and 1.0754; in the data set with HCT116 cells [2] (conc 1.25e-5, 125 mJ/cm2 UV), 1.8196 and 1.0192; in the data set with HCT116 cells [2] (conc 1.25e-5, no UV), 1.2465 and 0.8301. The “WST-1 raw signal (Figure 5c)” value in the data set with HCT116 cells [2] (conc 2.5e-5, 5mJ/cm2 UV) is 0.2188 and 0.2466; in the data set with HCT116 cells [2] (conc 2.5e-5, 125 mJ/cm2 UV), 0.4428 and 0.3571; with HCT116 cells [2] (conc 2.5e-5, no UV) it was 0.23 and 0.2464; with HCT116 cells [2] (conc 5e-5, 5mJ/cm2 UV), 0.1582 and 0.148; in the data set on HCT116 cells [2] (conc 5e-5, 125 mJ/cm2 UV) it was 0.1729 and 0.1634; with HCT116 cells [2] (conc 5e-5, no UV), 0.1562 and 0.1551. For the same compound, the “WST-1 raw signal (Figure 5c)” value in the data set on HCT116 cells [2] (conc 1.95E-07, 5mJ/cm2 UV) was 3.319 and 3.3471; with HCT116 cells [2] (conc 1.95E-07, 125 mJ/cm2 UV), 2.9662 and 3.2767; in the data set on HCT116 cells [2] (conc 1.95E-07, no UV), 3.3384 and 3.3351; in the data set on HCT116 cells [2] (conc 3.91E-07, 5mJ/cm2 UV), 3.2173 and 2.6279; with HCT116 cells [2] (conc 3.91E-07, 125 mJ/cm2 UV), 3.2982; with HCT116 cells [2] (conc 3.91E-07, no UV), 3.3319 and 2.4545. Besides, the “WST-1 raw signal (Figure 5c)” value in the data set on HCT116 cells [2] (conc 7.81E-07, 5mJ/cm2 UV) is 3.0666 and 2.7778; with HCT116 cells [2] (conc 7.81E-07, 125 mJ/cm2 UV), 3.2287 and 3.2519; in the data set on HCT116 cells [2] (conc 7.81E-07, no UV), 3.286 and 3.3592; with HCT116 cells [2] (conc 9.77E-08, 5mJ/cm2 UV), 3.3085 and 3.2577; in the data set on HCT116 cells [2] (conc 9.77E-08, 125 mJ/cm2 UV), 3.2825 and 3.2983; with HCT116 cells [2] (conc 9.77E-08, no UV), 3.2977 and 3.3288. The “synthetic lethality with loss of HR repair” value in data set [3] is listed as “synthetic lethal”. The “DNA damage (γ-H2AX) in the presence of UVA” value in data set [4] is “not”. In the data set with U2OS cells, the “potentiation of CPD formation by UVA” value is recorded as “not”.
For the compound `C[n+]1cc(NC(=O)c2ccc3ccc4ccc(C(=O)Nc5cc6ccccc6[n+](C)c5)nc4c3n2)cc2ccccc21` [PhenDC3], the “potentiation of UVA-induced cytotoxicity” value in the data set on HCT116 cells [2] is “not”. Moreover, the “WST-1 raw signal (Figure 5e)” value in the data set on HCT116 cells [2] (conc 1.47e-6, 5mJ/cm2 UV) was 2.5247 and 1.9665 and 1.5331; in the data set with HCT116 cells [2] (conc 1.47e-6, 125mJ/cm2 UV), 2.2675 and 1.9844 and 1.1454; in the data set with HCT116 cells [2] (conc 1.47e-6, no UV) it was 1.3654 and 1.4935 and 1.7286; in the data set on HCT116 cells [2] (conc 2.94e-6, 5mJ/cm2 UV), 2.08 and 2.2029 and 1.6368; in the data set on HCT116 cells [2] (conc 2.94e-6, 125mJ/cm2 UV) it was 2.4823 and 2.523 and 1.7852; in the data set on HCT116 cells [2] (conc 2.94e-6, no UV) it was 1.5405 and 2.117 and 2.002. Also, the “WST-1 raw signal (Figure 5e)” value was 2.4037 and 2.2391 and 1.6885 in the data set with HCT116 cells [2] (conc 5.88e-6, 5mJ/cm2 UV); 2.7023 and 2.4336 and 1.5283 with HCT116 cells [2] (conc 5.88e-6, 125mJ/cm2 UV); 1.7 and 1.9567 and 2.1724 in the data set on HCT116 cells [2] (conc 5.88e-6, no UV); 2.1812 and 1.9738 and 1.7421 with HCT116 cells [2] (conc 1.18e-5, 5mJ/cm2 UV); 2.7227 and 2.5018 and 2.3037 in the data set on HCT116 cells [2] (conc 1.18e-5, 125mJ/cm2 UV); 1.7648 and 1.8678 and 1.9824 with HCT116 cells [2] (conc 1.18e-5, no UV). Also, the “WST-1 raw signal (Figure 5e)” value with HCT116 cells [2] (conc 2.35e-5, 5mJ/cm2 UV) was 0.565 and 0.559 and 0.471; with HCT116 cells [2] (conc 2.35e-5, 125mJ/cm2 UV), 0.7287 and 0.5914 and 0.574; in the data set on HCT116 cells [2] (conc 2.35e-5, no UV), 0.8347 and 0.741 and 0.6679; with HCT116 cells [2] (conc 4.7e-5, 5mJ/cm2 UV) it was 0.2348 and 0.2033 and 0.2076; in the data set on HCT116 cells [2] (conc 4.7e-5, 125mJ/cm2 UV) it was 0.1706 and 0.1911 and 0.2089; in the data set with HCT116 cells [2] (conc 4.7e-5, no UV) it was 0.2669 and 0.2647 and 0.2402. The “WST-1 raw signal (Figure 5e)” value in the data set with HCT116 cells [2] (conc 9.4e-5, 5mJ/cm2 UV) is 0.1394 and 0.1367 and 0.1266; with HCT116 cells [2] (conc 9.4e-5, 125mJ/cm2 UV), 0.1442 and 0.1281 and 0.1307; with HCT116 cells [2] (conc 9.4e-5, no UV) it was 0.1612 and 0.1272 and 0.1365; in the data set with HCT116 cells [2] (conc 1.84E-07, 5mJ/cm2 UV), 1.7037 and 1.2125 and 1.5201; in the data set on HCT116 cells [2] (conc 1.84E-07, 125mJ/cm2 UV) it was 1.8011 and 1.8559 and 1.4258; with HCT116 cells [2] (conc 1.84E-07, no UV) it was 1.321 and 1.2585 and 1.2601. The “WST-1 raw signal (Figure 5e)” value was 1.8869 and 1.5993 and 1.6043 with HCT116 cells [2] (conc 3.67E-07, 5mJ/cm2 UV); 2.4917 and 1.8093 and 1.3054 in the data set with HCT116 cells [2] (conc 3.67E-07, 125mJ/cm2 UV); 1.2806 and 1.3851 and 1.3161 in the data set on HCT116 cells [2] (conc 3.67E-07, no UV); 1.9796 and 1.8361 and 1.8217 in the data set on HCT116 cells [2] (conc 7.34E-07, 5mJ/cm2 UV); 2.3975 and 1.9653 and 1.3571 with HCT116 cells [2] (conc 7.34E-07, 125mJ/cm2 UV); 1.5573 and 1.2554 and 1.5011 with HCT116 cells [2] (conc 7.34E-07, no UV).
Consider `C[n+]1ccc(-c2c3nc(c(-c4cc[n+](C)cc4)c4ccc([nH]4)c(-c4cc[n+](C)cc4)c4nc(c(-c5cc[n+](C)cc5)c5ccc2[nH]5)C=C4)C=C3)cc1` [TMPYP4], for which the “potentiation of UVA-induced cytotoxicity” value in the data set on HCT116 cells [2] was “not”.
